Patent US20120100189A1 (Teva Pharmaceutical Industries Ltd., priority 2009, published 2012)

Details: non-polar organic solvents such as hexane toluene and ethylacetate

C#CCN[C@@H]1CCc2ccccc21 [Rasagiline base]
solubility in non-polar organic solvents: very soluble
